Measured values taken from PubChem BioAssay AID1259407 (Chemical Carcinogenesis Research Information System (CCRIS), 2018).
Activity calls are given as the source filed them. How the calls were made is not given here.

Test system: CCRIS mutagenicity, Ames/micronucleus/aberration tests
Assay: CCRIS mutagenicity studies
[1] = Test System: AMES SALMONELLA TYPHIMURIUM, Strain/Indicator: TA98, Metabolic Activation: NONE, Method: STANDARD PLATE
[2] = Test System: AMES SALMONELLA TYPHIMURIUM, Strain/Indicator: TA98, Metabolic Activation: RAT, LIVER, S-9, AROCLOR 1254, Method: STANDARD PLATE
[3] = Test System: AMES SALMONELLA TYPHIMURIUM, Strain/Indicator: TA100, Metabolic Activation: NONE, Method: STANDARD PLATE
[4] = Test System: AMES SALMONELLA TYPHIMURIUM, Strain/Indicator: TA1538, Metabolic Activation: RAT, LIVER, S-9, AROCLOR 1254, Method: STANDARD PLATE
[5] = Test System: MOUSE LYMPHOMA, Strain/Indicator: L5178Y (TK+/TK-), Metabolic Activation: RAT, LIVER, S-9, AROCLOR 1254, Method: SUSPENSION/PLATE
[6] = Test System: AMES SALMONELLA TYPHIMURIUM, Strain/Indicator: TA97A, Metabolic Activation: NONE, Method: PREINCUBATION
[7] = Test System: AMES SALMONELLA TYPHIMURIUM, Strain/Indicator: TA100, Metabolic Activation: NONE, Method: PREINCUBATION

In the case of `Nc1nc2ccc([N+](=O)[O-])cc2s1`, the mutagenic call (Test System: AMES SALMONELLA TYPHIMURIUM, Strain/Indicator: TA98, Metabolic Activation: HAMSTER, LIVER, S-9, AROCLOR 1254, Method: STANDARD PLATE) is reported as “active; positive”, the mutagenic call [1] is reported as “active; positive” and the mutagenic call [2] is reported as “active; positive”. The mutagenic call (Test System: AMES SALMONELLA TYPHIMURIUM, Strain/Indicator: TA100, Metabolic Activation: HAMSTER, LIVER, S-9, AROCLOR 1254, Method: STANDARD PLATE) was “active; positive”, the mutagenic call [3] was “inactive; negative” and the mutagenic call (Test System: AMES SALMONELLA TYPHIMURIUM, Strain/Indicator: TA100, Metabolic Activation: RAT, LIVER, S-9, AROCLOR 1254, Method: STANDARD PLATE) was “active; positive”. The mutagenic call (Test System: AMES SALMONELLA TYPHIMURIUM, Strain/Indicator: TA1535, Metabolic Activation: HAMSTER, LIVER, S-9, AROCLOR 1254, Method: STANDARD PLATE) was “active; positive”, the mutagenic call (Test System: AMES SALMONELLA TYPHIMURIUM, Strain/Indicator: TA1535, Metabolic Activation: NONE, Method: STANDARD PLATE) was “inactive; negative” and the mutagenic call (Test System: AMES SALMONELLA TYPHIMURIUM, Strain/Indicator: TA1535, Metabolic Activation: RAT, LIVER, S-9, AROCLOR 1254, Method: STANDARD PLATE) was “inactive; negative”. For the same molecule, the mutagenic call (Test System: AMES SALMONELLA TYPHIMURIUM, Strain/Indicator: TA1537, Metabolic Activation: HAMSTER, LIVER, S-9, AROCLOR 1254, Method: STANDARD PLATE) was “active; positive”, the mutagenic call (Test System: AMES SALMONELLA TYPHIMURIUM, Strain/Indicator: TA1537, Metabolic Activation: NONE, Method: STANDARD PLATE) was “inactive; negative” and the mutagenic call (Test System: AMES SALMONELLA TYPHIMURIUM, Strain/Indicator: TA1537, Metabolic Activation: RAT, LIVER, S-9, AROCLOR 1254, Method: STANDARD PLATE) was “inactive; negative”. For the same molecule, the mutagenic call (Test System: AMES SALMONELLA TYPHIMURIUM, Strain/Indicator: TA1538, Metabolic Activation: HAMSTER, LIVER, S-9, AROCLOR 1254, Method: STANDARD PLATE) was “active; positive”, the mutagenic call (Test System: AMES SALMONELLA TYPHIMURIUM, Strain/Indicator: TA1538, Metabolic Activation: NONE, Method: STANDARD PLATE) was “active; positive” and the mutagenic call [4] was “active; positive”. The mutagenic call (Test System: MOUSE LYMPHOMA, Strain/Indicator: L5178Y (TK+/TK-), Metabolic Activation: NONE, Method: SUSPENSION/PLATE) was “inactive; negative. reevaluation of results: negative” and the mutagenic call [5] was “inactive; negative. reevaluation of results: negative”.

For `CCc1c(N)ccc2ccccc12`, the mutagenic call [1] was “inactive; negative”, the mutagenic call (Test System: AMES SALMONELLA TYPHIMURIUM, Strain/Indicator: TA98, Metabolic Activation: RAT LIVER S-9, AROCLOR, Method: STANDARD PLATE) was “active; positive” and the mutagenic call [3] was “inactive; negative”. The mutagenic call (Test System: AMES SALMONELLA TYPHIMURIUM, Strain/Indicator: TA100, Metabolic Activation: RAT LIVER S-9, AROCLOR, Method: STANDARD PLATE) was “active; positive”.

For `O=[N+]([O-])c1ccc2c(c1)CCc1ccccc1-2`, the mutagenic call (Test System: AMES SALMONELLA TYPHIMURIUM, Strain/Indicator: TA98(1,8-DNP6), Metabolic Activation: NONE, Method: STANDARD PLATE) was “active; positive”, the mutagenic call (Test System: AMES SALMONELLA TYPHIMURIUM, Strain/Indicator: TA98(NR), Metabolic Activation: NONE, Method: STANDARD PLATE) was “active; positive” and the mutagenic call [1] was “active; positive”.

`OC1c2cccc3c2C2(OC2C1O)c1ccc2ccccc2c1-3` (stereo not given) was tested, and the mutagenic call [6] was “active; positive”, the mutagenic call (Test System: AMES SALMONELLA TYPHIMURIUM, Strain/Indicator: TA98, Metabolic Activation: NONE, Method: PREINCUBATION) was “active; positive” and the mutagenic call [7] was “active; positive”.

With `Oc1ccccc1F` the mutagenic call [5] was “active; positive. reevaluation of results: positive”, the mutagenic call (Test System: Mouse lymphoma, Strain/Indicator: L5178Y (tk+/tk-), Metabolic Activation: None, Method: Suspension/plate) was “inactive; negative” and the mutagenic call (Test System: Mouse lymphoma, Strain/Indicator: L5178Y (tk+/tk-), Metabolic Activation: Rat, Liver, S-9, Aroclor 1254, Method: Suspension/plate) was “inactive; inconclusive (previous evaluation negative)”.

For `CCOC(=O)C(=NNc1ccc(-c2ccc(NN=C(C(=O)OCC)C(=O)OCC)cc2)cc1)C(=O)OCC`, the mutagenic call (Test System: AMES SALMONELLA TYPHIMURIUM, Strain/Indicator: TA98, Metabolic Activation: HAMSTER, LIVER, S-9, Method: PREINCUBATION (PRIVAL METHOD)) was “inactive; negative”.

In the case of `COc1cc(N=Nc2ccccc2)ccc1N`, the mutagenic call (Test System: AMES SALMONELLA TYPHIMURIUM, Strain/Indicator: TA98, Metabolic Activation: RAT LIVER, CYTOSOL, AROCLOR 1254, Method: PREINCUBATION) is reported as “inactive; negative”, the mutagenic call (Test System: AMES SALMONELLA TYPHIMURIUM, Strain/Indicator: TA98, Metabolic Activation: RAT LIVER, MICROSOMES, AROCLOR 1254, Method: PREINCUBATION) is reported as “active; positive” and the mutagenic call (Test System: AMES SALMONELLA TYPHIMURIUM, Strain/Indicator: TA98, Metabolic Activation: RAT, LIVER, MICROSOMES, 3-METHOXY-4-AMINOAZOBENZENE, Method: PREINCUBATION) is reported as “inactive; negative”. The mutagenic call (Test System: AMES SALMONELLA TYPHIMURIUM, Strain/Indicator: TA98, Metabolic Activation: RAT, LIVER, MICROSOMES, AROCLOR 1254, Method: PREINCUBATION) was “active; positive”, the mutagenic call (Test System: AMES SALMONELLA TYPHIMURIUM, Strain/Indicator: TA98, Metabolic Activation: RAT, LIVER, MICROSOMES, Method: PREINCUBATION) was “inactive; negative” and the mutagenic call [2] was “active; positive”. For the same molecule, the mutagenic call (Test System: AMES SALMONELLA TYPHIMURIUM, Strain/Indicator: TA98, Metabolic Activation: RAT, LIVER, S-9, KC500 OR PHENOBARBITAL, Method: LIQUID SUSPENSION) was “active; positive”, the mutagenic call (Test System: AMES SALMONELLA TYPHIMURIUM, Strain/Indicator: TA100, Metabolic Activation: RAT, LIVER, S-9, KC500 OR PHENOBARBITAL, Method: LIQUID SUSPENSION) was “active; positive” and the mutagenic call [4] was “active; positive”.

For `O=C(Cl)c1ccccc1`, the mutagenic call (Test System: AMES SALMONELLA TYPHIMURIUM, Strain/Indicator: TA98, Metabolic Activation: NONE, Method: 0-1000 UG/PLATE) was “active; positive”, the mutagenic call (Test System: AMES SALMONELLA TYPHIMURIUM, Strain/Indicator: TA98, Metabolic Activation: RAT LIVER S-9, PCB, Method: PREINCUBATION) was “active; positive” and the mutagenic call [7] was “active; positive”. The mutagenic call [3] was “active; positive”, the mutagenic call (Test System: AMES SALMONELLA TYPHIMURIUM, Strain/Indicator: TA100, Metabolic Activation: RAT LIVER S-9, PCB, Method: PREINCUBATION) was “active; positive” and the mutagenic call (Test System: AMES SALMONELLA TYPHIMURIUM, Strain/Indicator: TA104, Metabolic Activation: NONE, Method: PREINCUBATION) was “active; positive”. The mutagenic call (Test System: AMES SALMONELLA TYPHIMURIUM, Strain/Indicator: TA104, Metabolic Activation: RAT LIVER S-9, PCB, Method: PREINCUBATION) was “active; positive”, the mutagenic call (Test System: E.COLI, Strain/Indicator: WP2 UVRA, Metabolic Activation: NONE, Method: PREINCUBATION) was “active; positive” and the mutagenic call (Test System: E.COLI, Strain/Indicator: WP2 UVRA, Metabolic Activation: RAT LIVER S-9, PCB, Method: PREINCUBATION) was “active; positive”.

With `CC(=O)NSc1c2cc(O)ccc2nc2ccc(O)cc12` the mutagenic call [6] was “active; positive”.
